According to patent EP2271935B1, “METHOD AND KIT FOR THE EX VIVO EVALUATION OF THE RESPONSE OF A TUMOR TO CONDITIONS TO BE TESTED” (Universität Leipzig, priority 2008, dated 2009):
Like-named read-outs stand apart in the source and are kept apart here.

System: epithelial cell line KB (DSMZ ACC 136)
Experiment: MTT assay of proliferation under varied riboflavin content and light exposure
Assay type: cell-based, human
From the text: To address this question, three media, a) the RPMI 1640 without riboflavin and phenol red that is used in the method according to the invention and was manufactured according to our specifications by Biochrom, as well as two different RPMI 1640 charges purchased from Invitrogen which were each containing 532 nmol/L riboflavin, b) a phenol red-free (Gibco 11835), and c) a conventional RPMI 1640 (Gibco 21875) with 13.284 µmol/L phenol red. All media were supplemented with 2 mmol/L L-alanyl-1-glutamine as stabilized glutamine source (Biochrom K0302 Lot 0755 S) and the same amount of 10% (v/v) of heat-inactivated fetal calf serum (FCS) that was purchased from Invitrogen (Lot 41Q7554K) with a yield of 198 nmol/L riboflavin. […] These medium concentrations define the riboflavin concentrations in controls (see below).
In addition to the influences exerted by the different types of media alone, the riboflavin-dependent impact on the outcome of the docetaxel treatment was investigated. For this purpose 100 µl/well of docetaxel dilutions containing threefold the concentration indicated were added into the wells of microwell plates. The following seven docetaxel concentrations were tested: 19.38, 38.75, 77.5, 155, 310, 620, and 1,240 pmol/L.
To examine photoactivation-dependent riboflavin-mediated effects disturbing the outcome of ex-vivo chemoresponse-evaluation by conventional cell culture medium, and in particular in the absence of flavin-protecting experimental conditions, varying amounts of riboflavin were added. A stock solution of 200 µM (-)-riboflavin (CAS 83-68-5, Sigma R9504, FW=376.37 g/mol, purity >99%, cell culture tested) in phosphate buffered saline was diluted to adjust in each case the highest final concentration in culture (this means: after completion of the assay by addition of the other two components to the final assay volume of 300 µL) to exactly 10 µmol/L. Serial log10-dilutions were made from this concentration in each corresponding medium. These gave final concentrations in cell culture of 10.000, 1.018, 0.12, and 0.03 µmol/L in the case of medium a) (the medium according to the method of the invention), and concentrations of 10.000, 1.449, 0.594, and 0.508 µmol/L using media b) and c).
In general, each combination of riboflavin and docetaxel were tested in duplicate, and controls without additional riboflavin in quadruplicate for each experimental setting in the same 96-well plate. The experimental conditions were as follows: For each of the used media, two different plates were prepared simultaneously and either handled completely under flavin-protecting conditions (illumination only by sodium discharge lamps with an emission wavelength of 589 nm [i]), or in the same bench (Thermo MSC 12) with the installed light inside their working chamber switched on. The dilution of docetaxel and those of riboflavin in the particular medium were prepared for all four plates of each medium type prior to the other working steps under flavin-protecting conditions. Thus the administrations of these dilutions took about 20 min either under flavin-protecting conditions or illuminated conditions. After completed preparation of the plates that thereafter contained 200 µL of both diluted compounds, the plates were incubated 2 h in the incubator to allow for adjustment of the appropriate pH.
In between the stock culture of KB was harvested by trypsination of a 3-days stock culture (exponential growth phase). Stock cultures of KB cells always were grown without any antibiotic or antimycotic in phenol red- and riboflavin-free RPMI 1640 supplemented with 10% (v/v) FCS and were adapted to this medium for more than five passages. They were always handled at room temperature or warmer and were never exposed to light other than the light of a sodium discharge lamp with an emission wavelength of 589 nm for at least five passages. […]

CC(=O)O[C@@]12CO[C@@H]1C[C@H](O)[C@@]1(C)C(=O)[C@H](O)C3=C(C)[C@@H](OC(=O)[C@H](O)[C@@H](NC(=O)OC(C)(C)C)c4ccccc4)C[C@@](O)([C@@H](OC(=O)c4ccccc4)[C@H]21)C3(C)C [docetaxel]
IC50 (Homo sapiens, Epithelial cell, 0.5 h, Plate No. 02; Riboflavin 20 nmol/L; medium a) RPMI 1640 without riboflavin and phenol red, daylight 30 min, read-out: IC50 for docetaxel with reference to control with same riboflavin content): 0.238 nM | IC50 (Homo sapiens, Epithelial cell, 0.5 h, Plate No. 02; Riboflavin 20 nmol/L; medium a), daylight 30 min, read-out: IC50 for docetaxel normalized to medium control of medium with same riboflavin content): 0.1 nM | IC50 (Homo sapiens, Epithelial cell, 0.5 h, Plate No. 02; Riboflavin 30 nmol/L; medium a) RPMI 1640 without riboflavin and phenol red, daylight 30 min, read-out: IC50 for docetaxel with reference to control with same riboflavin content): 0.328 nM | IC50 (Homo sapiens, Epithelial cell, 0.5 h, Plate No. 02; Riboflavin 30 nmol/L; medium a), daylight 30 min, read-out: IC50 for docetaxel normalized to medium control of medium with same riboflavin content): 0.138 nM | IC50 (Homo sapiens, Epithelial cell, 0.5 h, Plate No. 02; Riboflavin 120 nmol/L; medium a) RPMI 1640 without riboflavin and phenol red, daylight 30 min, read-out: IC50 for docetaxel with reference to control with same riboflavin content): 0.34 nM | IC50 (Homo sapiens, Epithelial cell, 0.5 h, Plate No. 02; Riboflavin 120 nmol/L; medium a), daylight 30 min, read-out: IC50 for docetaxel normalized to medium control of medium with same riboflavin content): 0.143 nM | IC50 (Homo sapiens, Epithelial cell, 0.5 h, Plate No. 03; Riboflavin 20 nmol/L; medium a) RPMI 1640 without riboflavin and phenol red, bench lighting <30 min, read-out: IC50 for docetaxel with reference to control with same riboflavin content): 0.212 nM | IC50 (Homo sapiens, Epithelial cell, 0.5 h, Plate No. 03; Riboflavin 20 nmol/L; medium a), bench lighting <30 min, read-out: IC50 for docetaxel normalized to medium control of medium with same riboflavin content): 0.1 nM | IC50 (Homo sapiens, Epithelial cell, 0.5 h, Plate No. 03; Riboflavin 30 nmol/L; medium a) RPMI 1640 without riboflavin and phenol red, bench lighting <30 min, read-out: IC50 for docetaxel with reference to control with same riboflavin content): 0.185 nM | IC50 (Homo sapiens, Epithelial cell, 0.5 h, Plate No. 03; Riboflavin 30 nmol/L; medium a), bench lighting <30 min, read-out: IC50 for docetaxel normalized to medium control of medium with same riboflavin content): 0.0873 nM | IC50 (Homo sapiens, Epithelial cell, 0.5 h, Plate No. 03; Riboflavin 120 nmol/L; medium a) RPMI 1640 without riboflavin and phenol red, bench lighting <30 min, read-out: IC50 for docetaxel with reference to control with same riboflavin content): 0.154 nM | IC50 (Homo sapiens, Epithelial cell, 0.5 h, Plate No. 03; Riboflavin 120 nmol/L; medium a), bench lighting <30 min, read-out: IC50 for docetaxel normalized to medium control of medium with same riboflavin content): 0.0725 nM | IC50 (Homo sapiens, Epithelial cell, 0.5 h, Plate No. 03; Riboflavin 1018 nmol/L; medium a) RPMI 1640 without riboflavin and phenol red, bench lighting <30 min, read-out: IC50 for docetaxel with reference to control with same riboflavin content): 0.202 nM | IC50 (Homo sapiens, Epithelial cell, 0.5 h, Plate No. 03; Riboflavin 1018 nmol/L; medium a), bench lighting <30 min, read-out: IC50 for docetaxel normalized to medium control of medium with same riboflavin content): 0.095 nM | IC50 (Homo sapiens, Epithelial cell, 0.5 h, Plate No. 04; Riboflavin 20 nmol/L; medium a) RPMI 1640 without riboflavin and phenol red, bench lighting <30 min, daylight 30 min, read-out: IC50 for docetaxel with reference to control with same riboflavin content): 0.175 nM | IC50 (Homo sapiens, Epithelial cell, 0.5 h, Plate No. 04; Riboflavin 20 nmol/L; medium a), bench lighting <30 min, daylight 30 min, read-out: IC50 for docetaxel normalized to medium control of medium with same riboflavin content): 0.1 nM | IC50 (Homo sapiens, Epithelial cell, 0.5 h, Plate No. 04; Riboflavin 30 nmol/L; medium a) RPMI 1640 without riboflavin and phenol red, bench lighting <30 min, daylight 30 min, read-out: IC50 for docetaxel with reference to control with same riboflavin content): 0.139 nM | IC50 (Homo sapiens, Epithelial cell, 0.5 h, Plate No. 04; Riboflavin 30 nmol/L; medium a), bench lighting <30 min, daylight 30 min, read-out: IC50 for docetaxel normalized to medium control of medium with same riboflavin content): 0.0796 nM | IC50 (Homo sapiens, Epithelial cell, 0.5 h, Plate No. 04; Riboflavin 120 nmol/L; medium a) RPMI 1640 without riboflavin and phenol red, bench lighting <30 min, daylight 30 min, read-out: IC50 for docetaxel with reference to control with same riboflavin content): 0.149 nM | IC50 (Homo sapiens, Epithelial cell, 0.5 h, Plate No. 04; Riboflavin 120 nmol/L; medium a), bench lighting <30 min, daylight 30 min, read-out: IC50 for docetaxel normalized to medium control of medium with same riboflavin content): 0.0855 nM | IC50 (Homo sapiens, Epithelial cell, 0.5 h, Plate No. 06; Riboflavin 499 nmol/L; medium b) phenol red-free RPMI 1640, daylight 30 min, read-out: IC50 for docetaxel with reference to control with same riboflavin content): 0.223 nM | IC50 (Homo sapiens, Epithelial cell, 0.5 h, Plate No. 06; Riboflavin 499 nmol/L; medium b), daylight 30 min, read-out: IC50 for docetaxel normalized to medium control of medium with same riboflavin content): 0.1 nM | IC50 (Homo sapiens, Epithelial cell, 0.5 h, Plate No. 06; Riboflavin 508 nmol/L; medium b) phenol red-free RPMI 1640, daylight 30 min, read-out: IC50 for docetaxel with reference to control with same riboflavin content): 0.485 nM | IC50 (Homo sapiens, Epithelial cell, 0.5 h, Plate No. 06; Riboflavin 508 nmol/L; medium b), daylight 30 min, read-out: IC50 for docetaxel normalized to medium control of medium with same riboflavin content): 0.218 nM | IC50 (Homo sapiens, Epithelial cell, 0.5 h, Plate No. 06; Riboflavin 594 nmol/L; medium b) phenol red-free RPMI 1640, daylight 30 min, read-out: IC50 for docetaxel with reference to control with same riboflavin content): 0.187 nM
